Measured values taken from patent publication US7320995B2, “Benzimidazoles and benzothiazoles as inhibitors of map kinase” (Eli Lilly and Company, priority 2002, dated 2008).

Tests used:
[1] = test system: TNF-α production in mouse peritoneal macrophages; experiment: Inhibition of TNF-α in vitro, mouse peritoneal macrophages, Luminex; assay type: cell-based; details: Peritoneal macrophage; LPS and interferon-γ stimulated mouse peritoneal macrophages, 18 hours; read-out: IC50, suppression of TNF-α in vitro
Method: At day 4 or 5 post-injection the mice are sacrificed and then injected i.p. with 4 mL Dulbecco's phosphate-buffered saline (BioWhittaker) and the peritoneal macrophages are withdrawn by syringe. Mouse peritoneal macrophages are counted with a hemocytometer and adjusted to 2.5×10^6 cells/ml complete media (RPMI-1640 medium containing 10% fetal bovine serum). Cells are plated in 96-well flat-bottom plates at 5×10^5 cells per 200 μl per well and allowed to settle and adhere to the bottom of the well for at least 3 hours. […] (20 μL/well). The cells are then treated with a mixture of 50 ng/L lipopolysaccharide (LPS) and 10 U/mL interferon-γ for 18 hours at 37° C. (20 μL/well). The conditioned media is harvested and assayed for TNF-α production using the Luminex procedure. […] The premixed anti-cytokine conjugated beads are vortexed (25×) vigorously for 30 seconds. The anti-cytokine conjugated beads are diluted to a 1× concentration using 1× Bio-Plex Assay Buffer. For every plate, 240 μL of the pre-mixed beads is added to 5760 μL of Bio-Plex Assay Buffer. […] The blocking buffer is filtered through using a Millipore filtration system and then toweled dry. Two washes are performed on the filter plate with 100 μl/well of Bio-Plex Assay Buffer and toweled dry. The 1× anti-cytokine conjugated beads are vortexed for 15 seconds and added 50 μL to each well. This is filtered through and toweled dry. Two washes are performed on plates with 100 μl/well of Bio-Plex Wash Buffer. Again, it is filtered through and toweled dry. 50 μL of sample or standard is added to each sample well. This is incubated for 60 seconds at room temperature on a shaker protected from light at setting 6 and then for 30 minutes at setting 3 and then placed in the refrigerator overnight. […] Standards and samples are read on a Luminex machine. These intensity readings are then converted to picogram/milliliter units based on a 12-point standard curve created in duplicate using a four-parameter logistic regression method (Bio-Plex Manager, Versions 2.0 and 3.0, Bio-Rad), and the IC50 calculated.

[2] = Rat collagen induced arthritis efficacy model; assay type: in vivo, female Lewis rats
Method: Female Lewis rats ((≅190 gm, Charles River Labs) are immunized with Bovine type II collagen (2 mg/ml) emulsified with an equal volume of adjuvant (aluminum hydroxide). […]. The rats are immunized with approximately […] of the emulsion intradermally on the back near the base of the tail. All animals are re-immunized 7 days later according to the same protocol. The rats begin to develop arthritis (characterized by swelling and redness of one or both ankles) from 12 to 14 days after the first immunization. The rats are equally distributed into five treatment groups at the first signs of arthritis and treatment is initiated with each rat dosed bid for 14 days.
• Group 1 Vehicle (1% NaCarboxymethylcellulose+0.25% Tween 80) 1 mL, PO, Bid×14 days • Group 2 Example 77 (free base), 5 mg/kg, 1 mL, PO, Bid×14 • Group 3 Example 77 (free base), 15 mg/kg, 1 mL, PO, Bid×14 • Group 4 Example 77 (free base), 30 mg/kg, 1 mL, PO, Bid×14 • Group 5 Prednisolone 10 mg/kg, 1 mL, PO, qd×14
Ankle diameter is measured with calipers 5 days a week and recorded. Data is expressed as the area under the curve (AUC) generated from the composite inflammation scores and statistical analysis performed.
At the termination of the study, animals were sacrificed and ankles processed for histological evaluation. […]

[3] = test system: B16F10 melanoma lung metastases; experiment: Inhibition of B16F10 melanoma lung metastases; assay type: in vivo, C57B16 mice; details: day -1 to 16
Method: The B16F10 melanoma cell line is obtained from the American Type Culture Collection, Rockville, Md. The cells are cultured in RPMI-1640 medium supplemented with 10% fetal calf serum. The cells grown in vitro are harvested during their exponential growth phase by gentle trypsinization, washed twice in medium, and resuspended in serum-free RPMI-1640 medium. The number of monodisperse viable cells is determined using a hemocytometer and adjusted to 1×10^6 cells/mL. Tumor cells are injected intravenously into the tail vein of normal C57B16 mice with an inoculum volume of 0.2 ml containing 200,000 cells. Mice are treated with test compound or vehicle control starting 1 day before i.v. tumor inoculation. Example 77 (free base) is prepared as a suspension formulation in 1% NaCMC/0.25% polysorbate 80 and probe sonicated in an injection volume of 1% body weight (e.g., the 30 mg/kg dose level is prepared at 3 mg/ml and 0.2 cc was administered per 20 gram mouse). Mice are treated orally tid. with the compound at 30, 10, and 3 mg/kg (90, 30, and 9 mg/kg/day) from days −1 through 16 after tumor cell inoculation. Control mice receive the vehicle alone in an identical manner. On day 16, the mice are sacrificed, and the lungs are harvested and fixed in 3% paraformaldehyde. Lung lesions are quantitated by manual counting under a dissecting microscope.
The test compound was tested in the B16F10 melanoma lung metastasis model orally at 3, 10, and 30 mg/kg, tid from one day before to 16 days after i.v. tumor inoculation (total dose 9, 30 and 90 mg/kg/day). The lungs were harvested on day 16 and lung lesions were quantitated.

TNF-α = experiment: Effect on intra-articular LPS induced TNF-α (synovial lavage fluid, ELISA); assay type: in vivo, female Lewis rats; details: orally, one hour before intra-articular LPS, lavage after two hours
Method: Intra-articular injection of LPS into rat […] induces the synthesis of TNF-α, which can be measured in synovial lavage fluid. High levels of TNF-α are detectable within 2 hours. Since the joint is the site where arthritis develops, this model can rapidly determine whether an orally administered compound has an effect on an inflammatory response in the synovium.
Six female Lewis rats (150-200 g) are place in each treatment group. The animals are given vehicle (1% NaCarboxymethylcellulose-0.25% Tween 80) or Example 77 (free base) (1 mg/kg, 3 mg/kg, 10 mg/kg, and 30 mg/kg) orally. One hour later, 10 μl LPS (10 μg) is administered intra-articulately into the right ankle of each rat, while the left ankle receives 10 μL of saline. After two hours, each […] is laved with 100 μL of saline. The lavage is collected and stored at −80° C. • Group#1: Vehicle (1% NaCMC-0.25% Tween 80, 1 mL, PO) • Group#2: Example 77 (free base) (1 mg/kg, 1 mLl, PO) • Group#3: Example 77 (free base) (3 mg/kg, 1 mL, PO) • Group#4: Example 77 (free base) (10 mg/kg, 1 mL, PO) • Group#5: Example 77 (free base) (30 mg/kg, 1 mL, PO)
TNF-α was measured with a commercially available ELISA kit (R&D, RTA00). […] The TMED50=10 mg/kg for Example 77 in this assay.

[4] = test system: MAPKAP-K2 phosphorylation in P815 tumors; experiment: In vivo target inhibition study in P815 mastocytoma model; design: species or system DBA/2 mice; details: single oral dose 30 mg/kg
Method: In vivo target inhibition is determined by measuring the effect of inhibitor treatment on the phosphorylation of MAPKAP-K2 expressed in P815 tumor tissues. Tumors in DBA/2 mice received P815 cells subcutaneous implantation are allowed to grow to a size of 300-500 mg without treatment. Tumor bearing mice are then given oral administration of Example 77 (free base) or vehicle. To investigate time course related target inhibition by Example 77 (free base), tumors are harvested from CO2 sacrificed animals at the indicated times (3 hours, 6 hours, 12 hours, and 18 hours) after compound is dosed at 30 mg/kg. Dose-dependent target inhibition by Example 77 (free base) is investigated by harvesting tumors at 3 hours after orally given different doses of Example 77 (free base) or vehicle. Harvested tumors are immediately snap frozen onto dry ice, pulverized, homogenized and lysed in cooled lysis buffer containing proteinase and phosphatase inhibitors. After centrifugation to remove cell debris, supernatants containing 100 microgram total proteins are resuspended in 2×Tris-Glycin loading buffer and subjected to sodium dodecyl sulfate-polyacrylamide gel electrophoresis (10% Tris-Glycine) under reducing conditions. […] Expression level of phospho-p38 MAP kinase and total p-38 MAP kinase is also monitored by similar western blotting procedure.

P815 tumors = experiment: Inhibition of P815 tumor growth in vivo; design: species or system DBA/2 mice
Method: Female(6-8 weeks old) DBA/2 mice (Taconic) are implanted subcutaneously into the hind flank region on day 0 with P815 cells (0.5×10^6 cells in 200 ul of RPMI 1640). P815 tumor cells are purchased from ATCC and are cultured in RPMI 1640 medium, supplemented with glutamine and 10% bovine serum at 37° C. in 5% CO2 cell culture incubator. Tumor-bearing animals are treated with oral administration of Example 77 (free base), at different doses or vehicle with frequency of three times a day started on the day of implantation. Tumor growth is monitored every 2 days by measuring perpendicular diameters. Tumor volume expressed in milligram (mg) is determined as the product of the largest diameter (a) and its perpendicular (b) according to the formula [tumor volume=a×b^2×0.536].

[5] = test system: MAPKAPK-2 phosphorylation (p38 MAPK) in B16F10 tumors; experiment: B16F10 target (phosphorylated MAPKAPK-2) studies, immuno-blot of tumors; assay type: in vivo, C57B16 mice
angiogenesis = details: J. R. Jackson, et al., 1998; cited from earlier work

## CC(C)S(=O)(=O)n1c(N)nc2ccc(-c3nc(-c4nccs4)[nH]c3-c3ccccc3)cc21 [Example 17, 1-isopropylsulfonyl-2-amino-6-(2-(thiazol-2-yl)-5-(phenyl)-imidazol-4-yl)-benzimidazole]
[1]
  IC50: < 100 nM

## C[C@]12C=CC(=O)C=C1CC[C@@H]1[C@@H]2[C@@H](O)C[C@@]2(C)[C@H]1CC[C@]2(O)C(=O)CO [Prednisolone, reference compound]
[2]; 10 mg/kg PO qd x 14
  inflammation (ankle diameter): reduced the inflammation to pre-arthritic levels

## CC(C)S(=O)(=O)n1c(N)nc2ccc(-c3nc(-c4cccs4)[nH]c3-c3ccccc3)cc21 [Example 1, 1-isopropylsulfonyl-2-amino-6-(2-(thien-2-yl)-5-(phenyl)-imidazol-4-yl)-benzimidazole methanesulfonate]
[1]
  IC50: < 100 nM

## CC(C)S(=O)(=O)n1c(N)nc2ccc(-c3nc(-c4c(F)cccc4F)[nH]c3-c3ccccc3)cc21 [Example 77, 1-isopropylsulfonyl-2-amino-6-(2-(2,6-difluorophenyl)-5-(phenyl)-imidazol-4-yl)-benzimidazole]
[3]; 3 mg/kg orally tid
  inhibition of lung metastasis formation: 54%
[3]; 10 mg/kg orally tid
  inhibition of lung metastasis formation: 73%
[3]; 30 mg/kg orally tid
  inhibition of lung metastasis formation: 95%
TNF-α
  TMED50, inhibition of TNF-α synthesis in synovial lavage fluid: 10 mg/kg
[4]
  earliest time of the inhibitory effect on MAPKAP-K2 phosphorylation: 3 h
  time to which the inhibitory effect on MAPKAP-K2 phosphorylation extended: 12 h
[2]; 30 mg/kg PO bid x 14 days
  maximum reduction in ankle diameter: 46%
P815 tumors; 3 mg/kg oral tid
  inhibition of tumor volume: 55%
P815 tumors; 30 mg/kg oral tid
  inhibition of tumor volume: 67%
[5]; 30 mg/kg, time course study
  time for which p38 MAPK activity was inhibited: up to 9 hours
[5]; 2.5 hours after p.o. dosing
  ANOVA TMED50, inhibition of MAPKAPK-2 phosphorylation: 3 mg/kg
  lowest dose with appreciable inhibition of MAPKAPK-2 phosphorylation: 0.3 mg/kg
[5]; doses >30 mg/kg
  reduction of the phosphorylation level of MAPKAPK-2 in the tumors: > 80%

## CC(C)S(=O)(=O)n1c(N)nc2ccc(-c3nc(-c4ccncc4)[nH]c3-c3ccccc3)cc21 [Example 16, 1-isopropylsulfonyl-2-amino-6-(2-(pyridin-4-yl)-5-(phenyl)-imidazol-4-yl)-benzimidazole]
[1]
  IC50: < 100 nM

## Nc1nccc(-c2c(-c3ccc(F)cc3)ncn2C2CCNCC2)n1 [SB22025]
angiogenesis
  inhibition of angiogenesis: has been shown to inhibit angiogenesis
